According to patent US7589125B2, “2,4-dihydroxybenzoic acid derivatives” (Palau Pharma, S.A., priority 2002, dated 2009):

Legend:
farnesyltransferase = farnesyltransferase (Homo sapiens, UniProt P49356); settings: Hardcastle et al, Tetrahedron Letters 2001, 42(7), 1363-1365; cited from earlier work
[1] = test system: splenic lymphocytes from C57BL/6 mice stimulated with splenic lymphocytes from CBA mice; experiment: Test 4 - Immunosuppression model: murine mixed lymphocyte reaction; type: cell-based
Description: Test 4—Immunosupression Model: Murine Mixed Lymphocyte Reaction
Method: Immunosuppression was assessed by testing the effects of the compounds on the proliferation of splenic lymphocytes from C57BL/6 mice strain stimulated with splenic lymphocytes from CBA mice strain. Splenic lymphocyte populations were isolated from two mouse strains: CBA (acting as stimulating cells) and C57BL/6 (acting as proliferating cells). Homogenized mouse spleen was filtered and subsequently centrifuged at 250×g for 5 minutes at 4° C. The pellets were resuspended in culture medium (RPMI 1640 supplemented with 5% fetal calf serum and 2% antibiotics) and after repeating this process twice they were adjusted to a final density of 5×10^6 cells/mL. The isolated lymphocytes from CBA strain were treated with mitomycin C to block their proliferation.
In a 96-well plate, solutions of the test compounds or culture medium alone (for the control) were distributed. Next, 5×10^5 C57BL/6 cells and 2.5×10^5 CBA cells were added and incubated for 48 h (37° C., 5% CO2). After this preincubation 1 μCi of [^3H]-thymidine and 0.2 mM unlabeled thymidine were added to each well and the mixture was incubated 24 h. […]
Lymphocyte proliferation was measured as [^3H]-thymidine incorporation into the DNA of responding cells (C57BL/6) using a liquid scintillation counter (LS series, Beckman).

Male Swiss mice = experiment: Test 1 - Oxazolone-induced delayed hypersensitivity in mice (ear edema); type: in vivo; settings: topical on right ear, solution in acetone; FIG. 1
Description: Test 1—Oxazolone-induced Delayed Hipersensitivity in Mice
Method: Male Swiss mice (25-30 g body weight) were sensitized by the application of a 2% solution of oxazolone (Sigma) in acetone (50 μL) into the shaved abdomen. Seven days later, 25 μL of a 1.5% solution of oxazolone was applied on both surfaces of the right ear of the animals. The left ear served as control and was only treated with the vehicle (acetone). 20 μL of the test compound (dissolved in acetone) or vehicle alone (control) was applied on both sides of the right ear, 24 h before challenge and 1 and 5 h after challenge. To evaluate the edema, mice were killed (by CO2 inhalation) and an 8 mm disc was excised from the right and left ears. The edema was measured by the difference in weight between the two ears and inhibition was expressed as percentage in relation to the control group.

[2] = test system: hamster lung fibroblast cell line (V79 cells); experiment: Test 5 - Induction of apoptosis in tumor cells (active caspase-3, flow cytometry); type: cell-based
Description: Test 5: Induction of Apoptosis in Tumor Cells
Method: The ability of the compounds of the invention to induce apoptosis was determined in a hamster lung fibroblast cell line (V79 cells). To determine the induction of apoptosis a commercially available kit was used (CaspaTag™ Caspase-3 (DEVD) Activity Kit, Intergen); this kit detects the presence in the cells of the active form of the enzyme caspase-3, which is an apoptosis marker. V79 cells were incubated for 72 h in culture medium (DMEM supplemented with 2 mM Glutamine and 10% fetal calf serum) in the presence of test compound (30 and 100 μM; solution in phosphate-buffered saline) or vehicle. Next, cells were washed with phosphate-buffered saline, treated with Trypsin-EDTA solution until the cell layer was dispersed and were resuspended in fresh growth medium at a concentration of 10^6 cells/mL. A 300 μL aliquote of each of the samples was transferred to a tube and was incubated with the irreversible, carboxyfluorescein-labeled peptidic caspase-3 inhibitor FAM-DEVD-FMK for 1 hour at 37° C. in 5% CO2 and protecting the tubes from light following the kit's instructions. […] The inhibitor in excess was washed and the cells were then analyzed by flow cytometry at 488 nm.

[3] = test system: human umbilical vein endothelial cells (HUVEC); experiment: Cell viability in human non-proliferating cells (HUVEC); type: cell-based; settings: concentrations up to 500 μM, 72 h of incubation
Male Lewis rats = experiment: Test 3 - Inhibition of adjuvant-induced arthritis in the rat; type: in vivo; settings: 10 mg/kg/day p.o. for 28 days
Description: Test 3—Inhibition of Adjuvant-induced Arthritis in the Rat
Method: Male Lewis rats with body weight between 140 and 170 g and 7 week-old were used. Before the start of the study animals were acclimated for a period of at least 5 days. Animals were fasted for 18 hours before the study, with water ad libitum. Throughout the study, animals were allowed free access to drinking water, except during observation periods.
Groups of five animals were randomized (Sham, Control and Test compound). The duration of the study was 28 days. Arthritis was induced on day 1 of the study by a single subplantar injection of 0.1 mL of an emulsion prepared with 10 mg Mycobacterium butyricum and 10 mL Freund's incomplete adjuvant (Difco) to the right hindpaw of the animals from the Control (C) and Test compound (T) groups. Sham animals (S) received 0.1 mL Freund's incomplete adjuvant. Test compound was administered daily from day 1 of the study until day 28 at a dose of 10 mg/kg p.o. as a suspension in 1% Tween 80® while the Control group only received the vehicle. On day 28 of the development of arthritis, the volume of the left paw (secondary edema) was determined using a UGO BASILE 7150 plethysmometer. The inhibition of the increase in volume was calculated as follows: % Inh.=100−((T−S)/(C−S))*100 Where: T=Test compound group; C=Control group; and S=Sham group

[4] = test system: immune-deficient BNX mice transplanted with human psoriatic skin; experiment: Test 2 - Psoriasis model in immune-deficient BNX mice transplanted with human psoriatic skin; type: in vivo; settings: topical ointment at the concentration of 0.1%; p<0.01
Text: Test 2—Psoriasis Model in Immune-deficient BNX Mice Transplanted with Human Psoriatic Skin
Method: The goal of this study is to assess the effect of the test compounds on the development of a psoriatic lesion, induced by super-antigen-activated human peripheral blood T-cells, in non-lesional skin from a psoriasis patient transplanted onto immune-deficient BNX mice. Mice (male/female, circa 20 g, 5 mice per group) were transplanted with non-lesional skin biopsies from psoriasis patients. Peripheral blood mononuclear cells from the same patients were isolated and stored in freezer until further use. Transplants were allowed to “lake” for 4 weeks. After this period, transplants were treated topically with test compound or control (vehicle) preparations for 1 week. Then, peripheral blood mononuclear cells from psoriatic patients, previously activated in vitro for 2 days with super-antigen, were injected into the transplants intra-dermally. Transplants were treated with test compound or control preparations for two additional weeks. Transplants were then harvested and epidermal thickness was measured by using computer-aided morphometric analysis.

[5] = test system: human peripheral blood mononuclear cells (PBMC); experiment: Cell viability in human non-proliferating cells (PBMC); type: cell-based; settings: concentrations up to 500 μM, 72 h of incubation

Chain of farnesyltransferase (P49356 whole entry): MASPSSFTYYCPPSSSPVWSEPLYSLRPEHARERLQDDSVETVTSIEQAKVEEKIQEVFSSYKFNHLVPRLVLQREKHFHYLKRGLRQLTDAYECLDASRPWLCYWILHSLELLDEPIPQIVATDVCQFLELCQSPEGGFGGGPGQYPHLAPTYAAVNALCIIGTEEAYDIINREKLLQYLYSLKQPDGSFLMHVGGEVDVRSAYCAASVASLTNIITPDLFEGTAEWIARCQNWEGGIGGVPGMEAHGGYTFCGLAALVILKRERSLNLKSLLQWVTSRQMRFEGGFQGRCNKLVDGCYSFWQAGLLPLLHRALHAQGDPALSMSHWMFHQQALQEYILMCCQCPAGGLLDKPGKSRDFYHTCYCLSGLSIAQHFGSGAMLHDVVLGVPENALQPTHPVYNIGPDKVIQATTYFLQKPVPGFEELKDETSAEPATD

SMILES: O=C(O)c1c(O)c(F)c(OCCCF)c(F)c1F [2,3,5-trifluoro-4-(3-fluoropropoxy)-6-hydroxybenzoic acid]
- farnesyltransferase inhibition (farnesyltransferase): inactive

SMILES: COC(=O)c1ccc(OCCF)cc1O [Example 4, Methyl 2-hydroxy-4-(2-fluoroethoxy)benzoate]
- melting point: 64 °C

SMILES: O=C(O)c1ccc(OCC(F)(F)C(F)(F)F)cc1O [Example 6, 2-Hydroxy-4-(2,2,3,3,3-pentafluoropropoxy)benzoic acid]
- inhibition of mice splenic lymphocyte proliferation ([3H]-thymidine incorporation) ([1]; 300 μM): completely inhibited
- inhibition at 100 µM ([1]; Mus musculus, Splenic lymphocyte, 100 μM, read-out: inhibition of the proliferation of mice splenic lymphocytes): 60%
- inhibition of the edema (difference in weight between the two ears) (Male Swiss mice): concentration-dependent inhibition of the edema
- number of cells containing the active form of caspase-3 (apoptotic cells) ([2]; 30 and 100 μM, 72 h incubation, FIG. 2): concentration-dependent increase
- morphological observation of the cells (activation of apoptosis) ([2]; V79 cells): presence of cell membrane blebbing and the formation of apoptotic bodies
- cell viability [3]: not to affect cell viability
- inhibition of the increase in volume of the left paw (secondary edema) (Male Lewis rats): significant inhibition
- inhibition of the increase of the epidermal thickness induced by intradermal injection of activated mononuclear cells [4]: significant inhibition
- cell viability [5]: not to affect cell viability
